Laboratory results reported in patent US7879863B2, “Aniline derivatives” (Ajinomoto Co., Inc., priority 2004, dated 2011).
pIC50: −log10 of the molar value. Marks after values point to notes of the source that are not given here.

Experiments:
[1] = molecular target: T1, human activated tissue kallikrein (Homo sapiens, UniProt P06870); experiment: Measurement of tissue kallikrein inhibitory activity; format: biochemical; conditions: activated tissue kallikrein activity (initial rate) inhibited by 50%; substrate D-valyl-L-leucyl-L-arginyl-p-nitroanilide; 37° C.
T1 construct: 6xHis (C); made in house; host or cells: baculovirus / Sf21 insect cells
T1 sequence (P06870 25-262): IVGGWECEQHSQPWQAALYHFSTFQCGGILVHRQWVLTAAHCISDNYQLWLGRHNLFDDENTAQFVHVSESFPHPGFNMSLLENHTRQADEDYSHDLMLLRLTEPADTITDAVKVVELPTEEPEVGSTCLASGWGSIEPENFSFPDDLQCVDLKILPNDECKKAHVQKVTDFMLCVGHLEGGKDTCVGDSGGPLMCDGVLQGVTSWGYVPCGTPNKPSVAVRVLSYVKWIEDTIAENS
Description: Measurement of tissue kallikrein inhibitory activity
Expression and purification of human activated tissue kallikrein was performed according to the method of Angermann (A. Angermann et al., Eur. J. Biochem., 206, 225-233 (1992)). That is, a gene was prepared by adding 6 residues of histidine to the C-terminal side of human pancreas kallikrein gene (D. Fukuchima et al, Biochemistry, 24, 8037-8043 (1985)), and tissue prokallikrein was expressed by a system using a baculovirus-insect cell (Sf21). Purified human tissue kallikrein was obtained from the culture supernatant by purification using a nickel chelate column (Ni-NTA, QIAGEN K. K.), digestion with TPCK trypsin and further nickel chelate column. To a solution (100 μL) of the human activated tissue kallikrein adjusted to 0.0625 μg/mL with an assay buffer (100 mM tris-hydrochloride buffer (pH 8.4) containing 0.2M NaCl, 0.02% Tween 20, and 0.1% PEG 6000) was added an assay buffer (containing 2% DMSO) solution (50 μL) of the test compound adjusted to the objective concentration, and the mixture was incubated at 37° C. for 10 minutes (min=minutes). Then, a 4 mM solution (50 μL) of D-valyl-L-leucyl-L-arginyl-p-nitroanilide hydrochloride (BACHEM AG) adjusted with the assay buffer was added, the absorbance was measured and the reaction rate was determined. As a control, a DMSO solution (50 μL) was added instead of the solution of the test compound. Absorbance was measured at a wavelength of 405 nm at 60 second intervals for 90 min using a Benchmark Plus Microplate Reader (BIO RAD). The negative logarithm value (abbreviated as pIC50) of the test compound concentration when the activated tissue kallikrein activity (initial rate) was inhibited by 50% without addition of the test compound was used as an index of the activated tissue kallikrein inhibitory activity.

[2] = system: acetic acid writhing model; experiment: Efficacy evaluation in acetic acid writhing model; format: in vivo, male ICR mice; conditions: mice, writhing number 5 to 20 min after 0.9% acetic acid i.p., mean ± standard error
Description: Efficacy evaluation in acetic acid writhing model
The acetic acid writhing model was subjected to evaluation according to the method of European Journal of Pharmacology, 352, 47-52 (1998). To be specific, a solution of the test compound adjusted to the objective concentration with a 0.5 (w/v) % tragacanth gum solution was orally administered to male ICR mice (CHARLES RIVER LABORATORIES JAPAN, INC.) at 5 mL/kg, and a 0.9% acetic acid solution adjusted with a physiological saline was intraperitoneally administered 60 min later at 5 mL/kg. The number of writhing for 15 min from 5 min to 20 min after administration of a 0.9% acetic acid solution was counted and taken as the writhing number of the test compound. A mouse, to which a 0.5 (w/v) % tragacanth gum (TG) solution was orally administered at 5 ml/kg instead of the test compound, was used as a control. The suppression rate (%) was calculated by subtracting the relative value of each mouse from the relative value when the average value of the control group is 100%. As a Reference Example, the value obtained by oral administration of a positive control drug, indomethacin, instead of the test compound is shown. […] For testing the significant difference, Dunnett's t-test was used, and statistic significance as shown by P<0.05 and P<0.01 relative to the TG control group is shown in the Table with * and **, respectively.

[3] = system: DSS-induced enteritis model; experiment: Efficacy evaluation in DSS-induced enteritis model; format: in vivo, female CBA mice; conditions: mice, 5% DSS, relative to non-treatment group = 100%, mean ± standard error
Source text: Efficacy evaluation in DSS-induced enteritis model
The dextran sodium sulfate (DSS)-induced enteritis model was subjected to evaluation by a partly-modified methods of Gastroenterology, 98, 694-702 (1990) and Cytokine, 11, 890-896 (1998). A 5 (w/v) % DSS (manufactured by Sigma, MW 5,000) solution was freely taken by female CBA mice (CHARLES RIVER LABORATORIES JAPAN, INC.) for a given period to induce enteritis. A solution of the test compound adjusted to the objective concentration with a 0.5 (w/v) % tragacanth gum (TG) solution was orally administered at 5 mL/kg. Upon autopsy, the length, weight and the like of the large intestine were evaluated and used as an index of the onset of inflammatory enteritis. As a control, a mouse, to which a 0.5 (w/v) % TG solution was orally administered at 5 mL/kg instead of the test compound, was used. The length and weight of the large intestine are expressed as the relative value when the average value of the non-treatment group is 100%. As a Reference Example, the values obtained by oral administration of a positive control drug, salazosulfapyridine, instead of the test compound are shown. […] For testing the significant difference, Dunnett's t-test was used, and statistic significance as shown by P<0.05 and P<0.01 relative to the TG control group is shown in the Table with * and **, respectively.

pIC50 [1]: 6.60
SMILES: CCN1CCC(O)c2cc(C(F)(F)F)ccc21 (centres unmarked) [Compound E-6]
suppression rate (%) ([2]; 3 mg/kg oral): 58.7 ± 7.0** % | suppression rate (%) ([2]; 10 mg/kg oral): 58.7 ± 5.8** % | suppression rate (%) ([2]; 30 mg/kg oral): 64.9 ± 8.3** % | large intestine length (%) ([3]; 10 mg/kg oral): 85.2 ± 2.4** % | large intestine weight (%) ([3]; 10 mg/kg oral): 117.5 ± 5.1** % | large intestine length (%) ([3]; 30 mg/kg oral): 87.9 ± 2.0** % | large intestine weight (%) ([3]; 30 mg/kg oral): 110.7 ± 4.1** %
